In ChEMBL document CHEMBL1221387, “Prenylflavonoids from Glycyrrhiza uralensis and their protein tyrosine phosphatase-1B inhibitory activities” (Bioorg Med Chem Lett, 2010) one finds inhibition data, which are given here for 1 compound.

The target in this test is T1, Tyrosine-protein phosphatase non-receptor type 1 (Homo sapiens) (UniProt P18031).
T1 sequence (whole entry): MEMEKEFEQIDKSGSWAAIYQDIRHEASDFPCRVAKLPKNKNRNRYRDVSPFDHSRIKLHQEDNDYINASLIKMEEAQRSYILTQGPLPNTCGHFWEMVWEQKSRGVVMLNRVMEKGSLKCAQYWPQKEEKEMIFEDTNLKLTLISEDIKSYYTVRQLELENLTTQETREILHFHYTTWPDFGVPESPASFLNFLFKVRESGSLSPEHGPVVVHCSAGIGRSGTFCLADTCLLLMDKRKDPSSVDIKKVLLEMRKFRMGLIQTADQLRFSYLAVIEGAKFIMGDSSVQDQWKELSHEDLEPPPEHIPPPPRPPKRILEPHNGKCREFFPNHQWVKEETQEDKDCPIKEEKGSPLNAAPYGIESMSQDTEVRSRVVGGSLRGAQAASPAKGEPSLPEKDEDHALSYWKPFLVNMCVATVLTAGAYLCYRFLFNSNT
Description: Mixed type inhibition of human recombinant PTP1B at 30 uM by Lineweaver-Burke plot analysis.

Calls of active or inactive are those of the source. The rule behind the calls is not given here.

With `COc1cc(O)cc2occ(-c3cc(O)c(O)c(CC=C(C)C)c3)c(=O)c12`, the inhibition entry is “Active”.
